Source: ChEMBL document CHEMBL1201862, “PubChem BioAssay data set” (2004)
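1) Cells in 96-well plates. 2) Compound, 48 h, 5 concentrations. 3) Linear interpolation between surrounding doses. 4) Unreached endpoint = highest concentration. Here, GI50 denotes the concentration required for 50% inhibition of growth.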 Active and inactive are the calls of the source. Rule as the data show it: active = GI50 up to about 1.1 µM and inactive = higher.

Columns and labels:
Assay in all cases: DTP human tumour cell line panel, 48 h
NCI-H460 = tested on: NCI-H460
SK-MEL-2 = tested on: SK-MEL-2
NCI-H23 = tested on: NCI-H23
IGROV-1 = tested on: IGROV-1
RPMI-8226 = tested on: RPMI-8226
LOX IMVI = tested on: LOX IMVI
DU-145 = tested on: DU-145
M14 = tested on: M14
RXF 393 = tested on: RXF 393
A498 = tested on: A498
MDA-MB-231 = tested on: MDA-MB-231
MDA-MB-435 = tested on: MDA-MB-435
HCT-15 = tested on: HCT-15
U-251 = tested on: U-251
UACC-62 = tested on: UACC-62
NCI-H226 = tested on: NCI-H226
SNB-19 = tested on: SNB-19
MCF7 = tested on: MCF7
Malme-3M = tested on: Malme-3M
K562 = tested on: K562

Row | SMILES | GI50 (NCI-H460) | GI50 (SK-MEL-2) | GI50 (NCI-H23) | GI50 (IGROV-1) | GI50 (RPMI-8226) | GI50 (LOX IMVI) | GI50 (DU-145) | GI50 (M14) | GI50 (RXF 393) | GI50 (A498) | GI50 (MDA-MB-231) | GI50 (MDA-MB-435) | GI50 (HCT-15) [µM] | GI50 (U-251) | GI50 (UACC-62) | GI50 (NCI-H226) | GI50 (SNB-19) | GI50 (MCF7) | GI50 (Malme-3M) | GI50 (K562)
1 | O=C(CN1C(=O)c2ccccc2C1=O)C(O)CN1C(=O)c2ccccc2C1=O (stereo unspecified) | > 100 µM (inactive) | > 100 µM (inactive) | 26.9 µM (inactive) | 43.7 µM (inactive) | > 100 µM (inactive) | 92.3 µM (inactive) | 47.2 µM (inactive) | > 100 µM (inactive) | 34.4 µM (inactive) | 87.1 µM (inactive) | 22.5 µM (inactive) | 34.1 µM (inactive) | 92.5 | 29.1 µM (inactive) | > 100 µM (inactive) | 73.8 µM (inactive) | 50.7 µM (inactive) | > 100 µM (inactive) |  | 
2 | COC1(OC)CC(CO)(CNc2nc(N)nc(Cl)c2/C=N\O)C1 | 37.4 µM (inactive) |  | 9.77 µM (inactive) | 21.3 µM (inactive) | 13.6 µM (inactive) | 22.7 µM (inactive) | 34.3 µM (inactive) |  | 18.7 µM (inactive) | 18.5 µM (inactive) | 72.9 µM (inactive) | 31.5 µM (inactive) | 75.5 | 43.7 µM (inactive) |  | 29.6 µM (inactive) | 40.7 µM (inactive) | 24.1 µM (inactive) | 20.8 µM (inactive) | 17.7 µM (inactive)
3 | Clc1cc(Cl)c2cc3cccc[n+]3cc2c1Cl | 16.3 µM (inactive) | 16.3 µM (inactive) | 16.1 µM (inactive) |  | 16.4 µM (inactive) | 15.7 µM (inactive) | 15.2 µM (inactive) | 17.5 µM (inactive) |  | 18.6 µM (inactive) | 17.9 µM (inactive) | 16.3 µM (inactive) | 18.3 | 16.7 µM (inactive) | 15.3 µM (inactive) | 16.4 µM (inactive) | 14.9 µM (inactive) | 14.2 µM (inactive) | 22.2 µM (inactive) | 19 µM (inactive)
4 | N#C/C(=C\c1cn(Cc2ccccc2)c2ccccc12)c1nn(-c2ccccc2)c(N)c1C#N | 12 µM (inactive) | 4.65 µM (inactive) | 14.2 µM (inactive) | 12.8 µM (inactive) | 19.8 µM (inactive) | 32.2 µM (inactive) | 11.1 µM (inactive) | 20.4 µM (inactive) | 4.81 µM (inactive) | 16.7 µM (inactive) | 4.13 µM (inactive) | 20.6 µM (inactive) | 31.1 | 13.6 µM (inactive) | 10.8 µM (inactive) |  | 13.6 µM (inactive) | 28.2 µM (inactive) | 21.4 µM (inactive) | 24.3 µM (inactive)
5 | C[C@]12C(=O)OC[C@H](c3ccccc3)N1C(=O)N(Cc1ccccc1)[C@@H]2CO | > 100 µM (inactive) | > 100 µM (inactive) |  | > 100 µM (inactive) |  | > 100 µM (inactive) | > 100 µM (inactive) | > 100 µM (inactive) | > 100 µM (inactive) | > 100 µM (inactive) | > 100 µM (inactive) | > 100 µM (inactive) | > 100 |  | > 100 µM (inactive) | > 100 µM (inactive) | > 100 µM (inactive) | > 100 µM (inactive) | > 100 µM (inactive) | > 100 µM (inactive)
6 | Nc1ncnc2c1ncn2C1C=CC(COS(N)(=O)=O)C1 (stereo unspecified) | 12.2 µM (inactive) | 39.3 µM (inactive) | 9.77 µM (inactive) | 34.2 µM (inactive) | 2.93 µM (inactive) | 5.53 µM (inactive) | 66.8 µM (inactive) | 22.2 µM (inactive) | 12.4 µM (inactive) |  | 20.2 µM (inactive) | 35.2 µM (inactive) | 9.27 | 5.26 µM (inactive) | 20.6 µM (inactive) | 55.1 µM (inactive) | 9.23 µM (inactive) | 6.43 µM (inactive) | > 100 µM (inactive) | 16.2 µM (inactive)
7 | COc1ccc2c(O)c(S(=O)(=O)c3ccc(C)cc3)c(=O)oc2c1OC | > 100 µM (inactive) | > 100 µM (inactive) | > 100 µM (inactive) | > 100 µM (inactive) | > 100 µM (inactive) |  | > 100 µM (inactive) | > 100 µM (inactive) | > 100 µM (inactive) |  | > 100 µM (inactive) | > 100 µM (inactive) | > 100 | > 100 µM (inactive) | > 100 µM (inactive) | > 100 µM (inactive) | > 100 µM (inactive) | > 100 µM (inactive) | > 100 µM (inactive) | > 100 µM (inactive)
8 | CC(=O)Nc1ccc2c(c1)[nH]c(=O)c1cc(Cl)ccc12 | 10.4 µM (inactive) | 46.6 µM (inactive) | 17.1 µM (inactive) | 6.75 µM (inactive) |  | 19.5 µM (inactive) | 19.9 µM (inactive) | 36.5 µM (inactive) |  | 29.3 µM (inactive) | 44.8 µM (inactive) | 23.4 µM (inactive) | 33.1 | 34.3 µM (inactive) | 12.3 µM (inactive) | 10.2 µM (inactive) | 65.9 µM (inactive) | 4.48 µM (inactive) | 17.1 µM (inactive) | 34.1 µM (inactive)
9 | NC(=O)CN1CC(C2=C(O)CN(CC(N)=O)C2=O)=CC1=O | > 100 µM (inactive) | > 100 µM (inactive) | > 100 µM (inactive) | > 100 µM (inactive) | > 100 µM (inactive) | > 100 µM (inactive) | > 100 µM (inactive) | > 100 µM (inactive) |  | > 100 µM (inactive) | > 100 µM (inactive) | > 100 µM (inactive) | > 100 | > 100 µM (inactive) | > 100 µM (inactive) | > 100 µM (inactive) | > 100 µM (inactive) | > 100 µM (inactive) | > 100 µM (inactive) | > 100 µM (inactive)
10 | CCN1CC2(COC)C(O)CC(OC)C34C5CC6(O)C(OC)C=C(C5C6OC(=O)c5ccc(OC)c(OC)c5)C(C(OC)C23)C14 (stereo unspecified) | > 7.5 µM (inactive) | > 7.5 µM (inactive) | > 7.5 µM (inactive) | > 7.5 µM (inactive) |  | > 7.5 µM (inactive) | > 7.5 µM (inactive) | > 7.5 µM (inactive) |  | > 7.5 µM (inactive) | > 7.5 µM (inactive) | > 7.5 µM (inactive) | > 7.5 | > 7.5 µM (inactive) | > 7.5 µM (inactive) | > 7.5 µM (inactive) | > 7.5 µM (inactive) | > 7.5 µM (inactive) | > 7.5 µM (inactive) | > 7.5 µM (inactive)
11 | COc1ncnc2c1cnn2Cc1cn(COCC(O)CO)nn1 (stereo unspecified) |  | > 100 µM (inactive) | > 100 µM (inactive) | > 100 µM (inactive) | > 100 µM (inactive) | > 100 µM (inactive) | > 100 µM (inactive) | > 100 µM (inactive) |  | > 100 µM (inactive) | > 100 µM (inactive) | > 100 µM (inactive) | > 100 | > 100 µM (inactive) | > 100 µM (inactive) | > 100 µM (inactive) | > 100 µM (inactive) | > 100 µM (inactive) |  | > 100 µM (inactive)
12 | CCOC(=O)C1C(=O)CC(C)(O)C(C(=O)OCC)C1c1ccc(N(C)C)cc1 (stereo unspecified) | > 100 µM (inactive) | > 100 µM (inactive) | > 100 µM (inactive) | > 100 µM (inactive) |  | > 100 µM (inactive) | > 100 µM (inactive) |  | > 100 µM (inactive) | > 100 µM (inactive) | > 100 µM (inactive) | > 100 µM (inactive) | > 100 | > 100 µM (inactive) | > 100 µM (inactive) | > 100 µM (inactive) | > 100 µM (inactive) | > 100 µM (inactive) | > 100 µM (inactive) | > 100 µM (inactive)
13 | COc1c(N2CCCCC2)c2c(=O)c3ccccc3oc2c2c3ccccc3n(C)c12 | > 100 µM (inactive) | > 100 µM (inactive) | > 100 µM (inactive) |  | 47.1 µM (inactive) | > 100 µM (inactive) | > 100 µM (inactive) | > 100 µM (inactive) | 94.6 µM (inactive) |  | > 100 µM (inactive) | > 100 µM (inactive) | > 100 | > 100 µM (inactive) | > 100 µM (inactive) | > 100 µM (inactive) | > 100 µM (inactive) | 29.7 µM (inactive) | > 100 µM (inactive) | 58.2 µM (inactive)
14 | COc1ccc(N2C(=O)/C(=C\c3cccc(Oc4ccccc4)c3)S(=O)(=O)C2c2ccccc2)cc1 (stereo unspecified) | 36.7 µM (inactive) | 37.2 µM (inactive) | 28.4 µM (inactive) |  |  | 27.6 µM (inactive) | 38.3 µM (inactive) | 38.8 µM (inactive) | 17.1 µM (inactive) | 28.9 µM (inactive) | 85.1 µM (inactive) | 19.8 µM (inactive) | 21 | 50.7 µM (inactive) | 25.1 µM (inactive) | 64.7 µM (inactive) | 47 µM (inactive) | 26 µM (inactive) | 24.4 µM (inactive) | 16.4 µM (inactive)
15 | O=S(=O)(O)c1cc(/N=N/c2cc(S(=O)(=O)O)c3ccccc3c2O)ccc1/C=C/c1ccc(/N=N/c2cc(S(=O)(=O)O)c3ccccc3c2O)cc1S(=O)(=O)O | > 437 µM (inactive) | > 371 µM (inactive) | > 537 µM (inactive) | > 399 µM (inactive) |  | > 305 µM (inactive) | 303 µM (inactive) | 131 µM (inactive) | > 771 µM (inactive) | > 100 µM (inactive) | 27.3 µM (inactive) | 111 µM (inactive) | 98.6 | > 716 µM (inactive) | > 312 µM (inactive) | 270 µM (inactive) | > 733 µM (inactive) | 310 µM (inactive) | > 333 µM (inactive) | 30.1 µM (inactive)
